Test results reported in patent US6300364A, “Medicinal compositions with cholesterol-lowering effect” (priority 1997, dated 2001).
Read-outs that look alike come from different tables or passages of the source.

Experiments:
PPARα [1] = molecular target: T1, PPARα (Mus musculus, UniProt P23204); experiment: GAL4-PPARα reporter (luciferase) activation assay in HepG2 cells; assay type: cell-based; settings: read-out: Relative activity (control = 1) PPARα
T1 construct: mPPARα (Gly^165 -Tyr^467); expressed in transfected cells; host or cells: HepG2
T1 sequence (P23204 165-468 limits assumed): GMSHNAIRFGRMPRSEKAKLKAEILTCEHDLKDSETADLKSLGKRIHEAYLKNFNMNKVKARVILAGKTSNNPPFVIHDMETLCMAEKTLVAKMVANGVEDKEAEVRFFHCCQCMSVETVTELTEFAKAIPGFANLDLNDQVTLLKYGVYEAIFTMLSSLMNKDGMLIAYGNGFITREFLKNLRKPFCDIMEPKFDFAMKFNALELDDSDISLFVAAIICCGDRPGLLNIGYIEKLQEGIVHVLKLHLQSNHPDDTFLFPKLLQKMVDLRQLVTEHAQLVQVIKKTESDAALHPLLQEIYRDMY

PPARδ [2] = molecular target: T2, PPARδ (Mus musculus, UniProt P35396); experiment: GAL4-PPARδ reporter (luciferase) activation assay in HepG2 cells; assay type: cell-based; settings: for fold induction at 100 µM: read-out: Relative activity (control = 1) PPARδ; for PPARδ-activating effect (in words): conclusion from Table 1
T2 construct: mPPARδ (Met^137 -Tyr^439); expressed in transfected cells; host or cells: HepG2
T2 sequence (P35396 137-440 limits assumed): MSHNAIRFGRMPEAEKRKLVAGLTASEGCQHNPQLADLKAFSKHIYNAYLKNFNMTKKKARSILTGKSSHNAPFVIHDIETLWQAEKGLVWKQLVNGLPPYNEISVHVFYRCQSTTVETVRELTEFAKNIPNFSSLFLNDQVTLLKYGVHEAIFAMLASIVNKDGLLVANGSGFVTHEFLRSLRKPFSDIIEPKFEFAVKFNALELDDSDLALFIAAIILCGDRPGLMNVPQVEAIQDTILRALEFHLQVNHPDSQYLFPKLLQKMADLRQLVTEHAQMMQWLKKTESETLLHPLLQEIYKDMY

PPARγ = molecular target: T3, PPARγ (Mus musculus, UniProt P37238); experiment: GAL4-PPARγ reporter (luciferase) activation assay in HepG2 cells; settings: for fold induction at 100 µM: HepG2, 48 h, read-out: Relative activity (control = 1) PPARγ; for PPARγ-activating effect (in words): conclusion from Table 1
T3 sequence (P37238 202-505): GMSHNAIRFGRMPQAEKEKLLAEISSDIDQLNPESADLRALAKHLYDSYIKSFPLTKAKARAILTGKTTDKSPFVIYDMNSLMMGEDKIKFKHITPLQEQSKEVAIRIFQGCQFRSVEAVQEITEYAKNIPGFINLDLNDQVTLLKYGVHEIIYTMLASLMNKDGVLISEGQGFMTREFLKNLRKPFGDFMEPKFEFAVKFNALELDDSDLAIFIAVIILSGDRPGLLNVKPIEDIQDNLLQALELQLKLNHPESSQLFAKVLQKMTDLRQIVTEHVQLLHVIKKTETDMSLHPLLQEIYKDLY
From the text: To identify a compound having a PPARδ and PPARγ ligand effect, fused gene expression vectors of the DNA-binding domain (GAL4-DNA bindgn domain, GAL4-DBD) of a yeast transcription activated protein and the PPAR ligand binding domains (LBDs) were constructed. Three activation vectors thus constructed were named GAL-PPARα, GAL-PPARδ and GAL-PPARγ respectively.
i) Ligand binding domains (PPAR-LBDs) of mouse peroxisome-proliferator-activated receptors (mPPARα, mPPARδ and mPPARγ) were each amplified by PCR (polymerase chain reaction). As a template employed in the amplification, total RNA was prepared from a fat tissue around mouse epididymis with the use of a total RNA extracting reagent Isogen (manufactured by Nippon Gene) in accordance with the attached manufacturer's instruction. […] PCR was performed by using GeneAmp PCR System Model 9600.
ii) Into one side of each primer thus synthesized, a recognition sequence of a restriction enzyme SmaI or BamHI had been preliminarily inserted so that the primer could be cleaved with the restriction enzyme. After the amplification, the PCR fragment was ligated with pGBT9 DNA-Binding Domain Vector (5.5 kb, having the GAL4-DBD domain and an ampicillin resistance gene Amp^R sequence, manufactured by Clontech) and the vector thus formed was named pGBT9-PPAR-LBD.
iii) A fused gene domain (GAL4-DBD+PPAR-LBD) wherein GAL4-DBD contained in pGBT9-PPAR-LBD was legated to PPARLBD was excised by using HindIII/SalI and transferred into the multiple cloning site (MCS) of an expression vector pZeoSV (3.5 kb, having zeocin resistance gene Zeo^R sequence, manufactured by Clontech) by using HindIII/Xhol. The thus obtained chimeric expression vectors of GAL4-DBD ad PPAR-LBD were named respectively GAL-PPARα, GAL-PPARδ and GAL-PPARγ.
i) DNA sequences were synthesized by using a DNA synthesizer (Beckman DNA Synthesizer oligo1000M, manufactured by Beckman) by repeating the GAL4-DBD binding sequence (GAL4 responsive element, RE or UASG) once (RE×1) or thrice (RE×3). Then appropriate restriction enzyme cites were introduced into both ends and these sequences were ligated together to give a 4-repetition sequence fragment (RE×4). Further, an 8-repetition sequence fragment (RE×8) was formed by using the same.
ii) A DNA sequence wherein TATA box was ligated to the above GAL4 responsive sequence (RE×8) was formed by PCR and then inserted into the 5'-side upstream of the luciferase gene sequence (RE-LUC) in a vector for luciferae assay system (Pica Gene Vector-2, (PGV-B2), Toyo Ink Mfg.). […] RE-LUC containing RE×8 was transferred into cells together with GAL-PPARγ. Then CS-045 (troglitazone), i.e., the ligand of PPARγ was added.
By using the activation vectors and reporter vectors constructed in the above (1) and (2), the PPAR activation effect of a compound was measured by a method involving the following three steps: i) Cotransfection of construction into a host; ii) treatment of cells by adding the compound; and iii) assay of the reporter gene expression level.
HepG2 cells (American Type Culture Collection, Maryland, USA) was inoculated into a collagen type IV treated 96-well plate (manufactured by Iwaki) at a cell density of 1×10^4 /well and incubated for 2 days in the presence of Dulbecco's modified Eagle medium containing 10% of fetal calf serum (FCS) (200 μl/well, FCS-DMEM (GIBCO BRL)). Next, the cells were washed with 100 μl/well of a cell incubation medium (OPTI-MEM I Reduced Serum Medium, manufactured by GIBCO BRL) maintained at 37° C.

PPARα [3] = settings: literature report; cited from earlier work
PPARδ [4] = settings: literature report; cited from earlier work
[5] = Test for evaluating cholesterol-lowering effect by using rhesus monkey; assay type: in vivo; settings: for Decrease in LDL-C (LDL-cholesterol level) / Decrease in TC (serum total cholesterol level): male rhesus monkeys, 30 mg/kg/day in feed, 2 weeks, compared with data before the administration; for Effect of lowering serum total cholesterol level, in particular LDL-cholesterol level (in words): rhesus monkeys, conclusion from Table 2
Method: A test for evaluating cholesterol-lowering effect was performed by using rhesus monkeys in accordance with a method described in Br. J. Pharmacol., 118, p.174-178, 1996.
i) Male rhesus monkeys weighing about 4.5 to 5 kg (Purchased from Hamri) were fed by giving twice a day 50 g/day of a solid feed, which had been prepared by adding 50 ml of water and vitamin C (5 mg/kg/day, manufactured by Sigma) to 50 g of Purina powdery feed (Code #5408, manufactured by Oriental Yeast) and solidifying the mixture, and about 100 g of banana.
ii) The monkeys having been accustomed to the control feed were divided into a control group having 4 animals and test groups each having 3 animals. The animals of the […] were fed with the control feed. On the other hand, the animals of one test group were fed with a composition feed containing 30 mg/kg/day of YM-16683, while those of the other test group were fed with a composition feed containing 30 mg/kg/day of the compound of Production Example 1, each twice a day. To avoid unfinished feeding, banana was given to the animals after taking 50 g of each feed.
iii) The groups were fed with respective feeds for 2 weeks. About 16 hours before the day before the final administration, the animals were fasted and the blood samples were collected from thigh. After measuring body weight, blood collection was performed twice, i.e., before and after the administration of the test compound. Each blood sample thus collected was heparinized and serum was separated therefrom. Next, the total cholesterol level (TC) and LDL-cholesterol level (LDL-C) were measured by the enzymatic method with the use of an automatic analyzer (Model 736-10, Hitachi) (Table 2).
Decrease was calculated by comparing the data before the administration.

[6] = cited from earlier work; for Decrease in serum cholesterol level: normal subjects
[7] = cited from earlier work
[8] = test compound 10^-4 M, HepG2 cells, 48 hours, luciferase activity corrected by β-galactosidase, DMSO control = 1.0

CCOC(=O)C(C)(C)Oc1ccc(Cl)cc1 [Clofibrate]
fold induction at 100 µM (PPARα [1]; HepG2, 48 h): 2.2
fold induction at 100 µM (PPARδ [2]; HepG2, 48 h): 1.3
fold induction at 100 µM (PPARγ): 0.9

CCCCC[C@H](O)/C=C/[C@@H]1[C@H]2C/C(=C/CCCC(=O)O)O[C@H]2C[C@H]1O [PGI2, prostacyclin]
PPARα activation / ligand activity (in words) (PPARα [3]): activates neither PPARα nor PPARδ
PPARδ activation / ligand activity (in words) (PPARδ [4]): activates neither PPARα nor PPARδ

CCc1ccc(CCOc2ccc(CC3SC(=O)NC3=O)cc2)nc1 (centres unmarked) [Pioglitazone]
fold induction at 100 µM (PPARα [1]; HepG2, 48 h): 1.5
fold induction at 100 µM (PPARδ [2]; HepG2, 48 h): 1.4

CCCc1c(OCCCOc2ccc(CC(=O)O)cc2)ccc(C(C)=O)c1O [Production Example 1, p-[3-(4-acetyl-3-hydroxy-2-propylphenoxy)propoxy]phenylacetic acid]
fold induction at 100 µM (PPARα [1]; [8]): 0.6
PPARδ-activating effect (in words) (PPARδ [2]): effect of activating PPARδ and PPARγ
fold induction at 100 µM (PPARδ [2]; [8]): 83.5
fold induction at 100 µM (PPARγ): 10.3
PPARγ-activating effect (in words) (PPARγ): effect of activating PPARδ and PPARγ
Decrease in LDL-C (LDL-cholesterol level) [5]: 34%
Decrease in TC (serum total cholesterol level) [5]: 29%
Effect of lowering serum total cholesterol level, in particular LDL-cholesterol level (in words) [5]: excellent effect of lowering serum total cholesterol level, in particular, LDL-cholesterol level

Cc1cccc(Nc2cc(Cl)nc(SCC(=O)O)n2)c1C [Wy 14,643, prinixic acid]
fold induction at 100 µM (PPARγ): 1.8
PPARα activation / ligand activity (in words) (PPARα [3]): ligand specific to PPARα

CCCc1c(OCCCSc2nnc(SCC(=O)O)s2)ccc(C(C)=O)c1O [YM-16638]
fold induction at 100 µM (PPARα [1]; [8]): 1
PPARδ-activating effect (in words) (PPARδ [2]): effect of activating PPARδ and PPARγ
fold induction at 100 µM (PPARδ [2]; [8]): 46.2
fold induction at 100 µM (PPARγ): 2.5
PPARγ-activating effect (in words) (PPARγ): effect of activating PPARδ and PPARγ
Decrease in LDL-C (LDL-cholesterol level) [5]: 14%
Decrease in TC (serum total cholesterol level) [5]: 33%
Effect of lowering serum total cholesterol level, in particular LDL-cholesterol level (in words) [5]: excellent effect of lowering serum total cholesterol level, in particular, LDL-cholesterol level
Effect of lowering serum triglyceride level (in words) ([6]; humans): only a weak effect
Decrease in serum cholesterol level ([6]; administration dose 60 mg): about 26%
Decrease in serum cholesterol level ([6]; administration dose 120 mg): ~41%

CCCCC[C@H](O)/C=C/[C@@H]1[C@H]2C/C(=C/CCCC(=O)O)C[C@H]2C[C@H]1O [cPGI2, carbaprostacyclin]
fold induction at 100 µM (PPARα [1]; HepG2, 48 h): 15.2
fold induction at 100 µM (PPARδ [2]; HepG2, 48 h): 34
fold induction at 100 µM (PPARγ): 1.6
PPARα activation / ligand activity (in words) (PPARα [3]): has activities of both of PPARα and PPARδ ligands
PPARδ activation / ligand activity (in words) (PPARδ [4]): has activities of both of PPARα and PPARδ ligands

CCC(C)(C)C(=O)O[C@H]1C[C@@H](C)C=C2C=C[C@H](C)[C@H](CC[C@@H]3C[C@@H](O)CC(=O)O3)[C@H]21 [simvastatin]
Decrease in serum cholesterol level ([7]; patient with hyperlipemia, total serum cholesterol level of 220 mg/dl or above): about 20%
Decrease in serum cholesterol level ([7]; phase I clinical test, normal subjects, about 1 week after the initiation of the administration): about 20%
